This passage reports IC50 results from ChEMBL document CHEMBL1135656, “Molecular docking and 3D-QSAR studies on gag peptide analogue inhibitors interacting with human cyclophilin A” (J Med Chem, 2002).

Starred links: 1 amine or outer side, 2 acyl side, 3 side chain; linkers in the order of their positions; H or OH if unused. Non-standard residues stand in square brackets, D forms with d. Residues, ends and D or L forms follow the SMILES beside them. *: point of attachment. Desaminohistidyl = O=C(CCc1c[nH]cn1)*; X1 = c1ccc(C(CCN*)c2ccccc2)cc1; NHPhenethyl = c1ccc(CCN*)cc1; X2 = O=C(C1CCCC1N[*:1])[*:2]; Isovaleryl = CC(C)CC(=O)*; NHBn = c1ccc(CN*)cc1

In this assay the target is Peptidyl-prolyl cis-trans isomerase A (Homo sapiens, UniProt P62937). Nature of the assay: In vitro inhibition of human Cyclophilin A/protein interaction.
Chain of Peptidyl-prolyl cis-trans isomerase A (P62937 whole entry): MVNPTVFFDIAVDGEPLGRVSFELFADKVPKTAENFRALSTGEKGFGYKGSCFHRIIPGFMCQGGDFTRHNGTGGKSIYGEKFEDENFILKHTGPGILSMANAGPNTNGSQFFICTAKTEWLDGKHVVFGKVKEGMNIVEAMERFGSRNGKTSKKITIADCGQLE
As to `CC(=O)N[C@H](C(=O)N[C@@H](Cc1c[nH]cn1)C(=O)N[C@@H](C)C(=O)NCC(=O)N1CCC[C@@H]1C(=O)N[C@H](C(=O)N[C@@H](C)C(N)=O)c1ccccc1)C(C)C`, the IC50 (commonly the midpoint of a concentration-inhibition curve) was 970 µM.
The value for `CC[C@H](C)[C@H](NC(=O)[C@@H]1CCCN1C(=O)CNC(=O)[C@H](C)NC(=O)[C@H](Cc1cnc[nH]1)NC(=O)CC(C)C)C(=O)N[C@@H](C)C(N)=O` (Isovaleryl-HAGPIA-NH2) was 165 µM.
To `CC(=O)N[C@H](C(=O)N[C@@H](Cc1c[nH]cn1)C(=O)N[C@@H](C)C(=O)NCC(=O)N1CCC[C@H]1C(=O)NC1CCCC1C(=O)N[C@@H](C)C(N)=O)C(C)C` (some centres undefined) (Ac-VHAGP[X2]A-NH2) belongs 680 µM.
To `CC(=O)N[C@H](C(=O)N[C@@H](Cc1c[nH]cn1)C(=O)N[C@@H](C)C(=O)NCC(=O)N1CCC[C@@H]1C(=O)N[C@@H](C(=O)N[C@@H](C)C(N)=O)c1ccccc1)C(C)C` belongs 820 µM.
`CC[C@H](C)[C@H](NC(=O)[C@@H]1CCCN1C(=O)CNC(=O)[C@H](C)NC(=O)[C@H](Cc1cnc[nH]1)NC(=O)[C@@H](NC(C)=O)C(C)C)C(=O)NCCC(c1ccccc1)c1ccccc1` (Ac-VHAGPI-X1): the IC50 came out at 365 µM. This IC50 lies about 2.2-fold lower than the previous one.
For `CC[C@H](C)[C@H](NC(=O)[C@@H]1CCCN1C(=O)CNC(=O)[C@H](C)NC(=O)[C@H](Cc1c[nH]cn1)NC(=O)[C@@H](NC(C)=O)C(C)C)C(=O)NCCc1ccccc1` (Ac-VHAGPI-NHPhenethyl), the IC50 was found to be 325 µM. The IC50 values of the last two compounds are within 1.5-fold of each other.
The value for H-HAGPIA-OH was 2000 µM; that for `CC(C)CC(=O)N[C@@H](Cc1cnc[nH]1)C(=O)N[C@@H](C)C(=O)NCC(=O)N1CCC[C@H]1C(=O)NC1CCCC1C(=O)NCc1ccccc1` (some centres undefined) (Isovaleryl-HAGP[X2]-NHBn) was 90 µM; that for `CC[C@H](C)[C@H](NC(=O)[C@@H]1CCCN1C(=O)CNC(=O)[C@H](C)NC(=O)CCc1cnc[nH]1)C(=O)N[C@@H](C)C(N)=O` (Desaminohistidyl-AGPIA-NH2) was 2600 µM.
